# Measurements reported in US20240315993A1, “ANTIPARASITIC COMPOUNDS” (Intervet Inc., priority 2021, published 2024).
# Experiments:
# Dermacenter variabilis = assay: Cattle - efficacy against multi-host ticks (Dermacenter variabilis); assay type: in vivo
# Method: (§1) Cattle were treated subcutaneously or topically (pour-on) at a dose of 5 mg/kg bodyweight of a test compound (Day 0). As subcutaneous formulation NMP 60%/PEG300 40% was used, and as pour-on formulation DMA 92%/DEET 8% was used. Cattle of the negative control group received only the formulation excipients of both formulations (SC, pour-on).
# (§2) Cattle were locally infested with 30 to 40 unfed adult ticks each of Rhipicephalus appendiculatus and Dermacenter variabilis (for both species sex ratio 1:1), by placing the ticks in an ear sleeve (R. appendiculatus) or a stockinet patch attached to the body side (D. variabilis) once before treatment, and at different time points after treatment. Free (i.e., non-attached ticks) were removed from ear sleeves/stockinet patches two days after each infestation and were excluded from the efficacy calculation.
# (§3) Compounds with efficacy ≥80 percent were found active.
# Lepeophtheirus salmonis = assay: Salmon - in vivo efficacy against sea lice using gavage administration; details: po, 168 h, read-out: therapeutic efficacy against (pre-)adult sea lice (% reduction vs control)
# [1] = tested on: Copepodids (juvenile sea lice stage of Lepeophtheirus salmonis); assay: Juvenile sea lice contact assay; details: Lepeophtheirus salmonis, 24 h, read-out: Sea lice inhibition (% of dead+damaged copepodids)
# Method: Copepodids (juvenile sea lice stage of Lepeophtheirus salmonis) were exposed to seawater spiked with declining concentrations of a test compound (dissolved in a DMSO sea-water mixture). Sea lice inhibition (% of dead+damaged copepodids) was assessed after approximately 24 hours of continuous exposure. The vitality of used parasites was confirmed in a negative (solvent) control group.
# [2] = tested on: Rhipicephalus sanguineus or Haemaphysalis elliptica ticks; assay: Dog - efficacy against ticks; assay type: in vivo
# Method: (§4) Beagle dogs were infested (whole body) with 80 Ctenocephalides felis fleas and 50 Rhipicephalus sanguineus or Haemaphysalis elliptica ticks (sex ratio 1:1) two days before the treatment day (Day 0), and repeatedly thereafter. Dogs of treatment groups were treated with 10 mg/kg bodyweight of a test compound orally (compound weighed in gelatin capsule), topically (spot-on, DMA 92%/DEET 8%) or subcutaneously (PEG 200 90%/water for injection 10%). Dogs of the negative control group received only an empty gelatin capsule orally and the spot-on formulation excipients topically.
# as §3
# [3] = tested on: Ctenocephalides felis fleas; assay: Dog - efficacy against fleas; assay type: in vivo; details: for therapeutic efficacy against fleas (active = efficacy ≥80 percent): D2
# Method: as §4, §3
# Rhipicephalus microplus = assay: Cattle - efficacy against one-host tick; assay type: in vivo
# How it was run: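 Cattle infested whole-body with up to 3000 R. microplus larvae two or three times weekly around Day 0, then given 1 mg/kg subcutaneously or topically (spray or pour-on); controls got excipients only. Engorged females dropping were counted daily; efficacy by ADEQ per WAAVP guidelines, onset/duration as first/last day ≥80%.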
# [4] = tested on: bed bugs (Cimex lectularius); assay: Guinea pig - efficacy against bed bug; assay type: in vivo
# How it was run: (§5)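 Guinea pigs given 5 mg/kg test compound orally (gavage) or s.c. in 10% DMF/emulsifier plus 90% water for injection, with local co-infestations of Ornithodoros moubata juveniles and Cimex lectularius at several post-treatment times. Engorged parasites scored dead/damaged about 24 h after collection; % inhibition versus pretreatment baseline by modified Schneider-Orelli formula.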
# [5] = tested on: juvenile soft ticks (Ornithodoros moubata); assay: Guinea pig - efficacy against argaside tick; assay type: in vivo
# How it was run: as §5
# [6] = tested on: Rhipicephalus appendiculatus; assay: Cattle - efficacy against multi-host ticks (Rhipicephalus appendiculatus); assay type: in vivo
# Method: as §1, §2, §3
# [7] = 5 mg/kg subcutaneous, re-infested after 7 days
# [8] = 5 mg/kg subcutaneous, re-infested after 14 days
# [9] = 5 mg/kg subcutaneous, re-infested after 21 days
# [10] = 5 mg/kg subcutaneous, re-infested after 28 days
# [11] = 5 mg/kg subcutaneous, therapeutic, Day 2
# [12] = 5 mg/kg topical pour-on, re-infested after 7 days
# [13] = 5 mg/kg topical pour-on, re-infested after 14 days
# [14] = 5 mg/kg topical pour-on, re-infested after 21 days
# [15] = 5 mg/kg topical pour-on, therapeutic, Day 2
# [16] = 5 mg/kg, both administration routes (topical, subcutaneous)
# [17] = 1 mg/kg topical (Compound 4: spray solution; others: DMA 92%/DEET 8% pour-on)
# [18] = 5 mg/kg subcutaneous, after 7 days
# [19] = 5 mg/kg subcutaneous, after 10 days
smiles,measurement,setting,value
O=C(Nc1ccc(F)cc1F)c1cc(NC(=O)[C@H]2[C@H](c3ccc(F)c(Cl)c3)C2(Cl)Cl)ccc1Cl [Compound 197],efficacy ≥80 percent against Dermacenter variabilis,Dermacenter variabilis; [7],prophylactic efficacy
same,efficacy ≥80 percent against Dermacenter variabilis,Dermacenter variabilis; [8],prophylactic efficacy
same,efficacy ≥80 percent against Dermacenter variabilis,Dermacenter variabilis; [9],prophylactic efficacy
same,efficacy ≥80 percent against Dermacenter variabilis,Dermacenter variabilis; [10],prophylactic efficacy
same,efficacy ≥80 percent against Dermacenter variabilis,Dermacenter variabilis; [11],therapeutic efficacy
same,efficacy ≥80 percent against Dermacenter variabilis,Dermacenter variabilis; [12],prophylactic efficacy
same,efficacy ≥80 percent against Dermacenter variabilis,Dermacenter variabilis; [13],prophylactic efficacy
same,efficacy ≥80 percent against Dermacenter variabilis,Dermacenter variabilis; [14],prophylactic efficacy
same,efficacy ≥80 percent against Dermacenter variabilis,Dermacenter variabilis; [15],therapeutic efficacy
same,effective in treating existing tick infestations,Dermacenter variabilis; [16],100%
same,inhibition in vivo at 5 mg/kg,Lepeophtheirus salmonis,80%
same,inhibition at 0.001 µM,[1],100%
same,efficacy against ticks in dogs (conclusion),[2]; 10 mg/kg,therapeutic efficacy
same,therapeutic efficacy against ticks (active = efficacy ≥80 percent),"[2]; 10 mg/kg oral, D2",active
same,active against ticks up to (efficacy ≥80 percent),"[2]; 10 mg/kg topical spot-on, repeated infestations",70/72
same,efficacy against fleas in dogs (conclusion),[3]; 10 mg/kg,therapeutic efficacy
same,therapeutic efficacy against fleas (active = efficacy ≥80 percent),[3]; 10 mg/kg oral,active
same,therapeutic efficacy against fleas (active = efficacy ≥80 percent),[3]; 10 mg/kg topical spot-on,active
same,duration of efficacy (last Day with efficacy ≥80 percent),Rhipicephalus microplus; 1 mg/kg subcutaneous,≥ 120 days
same,onset of efficacy (first Day with efficacy ≥80 percent),Rhipicephalus microplus; 1 mg/kg subcutaneous,3 days
same,duration of efficacy (last Day with efficacy ≥80 percent),Rhipicephalus microplus; [17],47 days
same,onset of efficacy (first Day with efficacy ≥80 percent),Rhipicephalus microplus; [17],2 days
same,"activity against bed bugs (≥80% inhibition, killed+damaged)","[4]; 5 mg/kg oral, Day 0",immediate activity
same,"activity against bed bugs (≥80% inhibition, killed+damaged)","[4]; 5 mg/kg oral, after 7 days",activity
same,"activity against bed bugs (≥80% inhibition, killed+damaged)","[4]; 5 mg/kg subcutaneous, Day 0",immediate activity
same,"activity against bed bugs (≥80% inhibition, killed+damaged)",[4]; [18],activity
same,"activity against bed bugs (≥80% inhibition, killed+damaged)",[4]; [19],activity
same,"activity against tick nymphs (≥80% inhibition, killed+damaged)","[5]; 5 mg/kg oral, Day 0",immediate activity
same,"activity against tick nymphs (≥80% inhibition, killed+damaged)","[5]; 5 mg/kg oral, after 7 days",activity
same,"activity against tick nymphs (≥80% inhibition, killed+damaged)","[5]; 5 mg/kg subcutaneous, Day 0",immediate activity
same,"activity against tick nymphs (≥80% inhibition, killed+damaged)",[5]; [18],activity
same,"activity against tick nymphs (≥80% inhibition, killed+damaged)",[5]; [19],activity
same,"duration of efficacy, subcutaneous compared with oral administration","[5]; 5 mg/kg, ticks and bed bugs",longer duration of efficacy
same,efficacy ≥80 percent against Rhipicephalus appendiculatus,[6]; [7],prophylactic efficacy
same,efficacy ≥80 percent against Rhipicephalus appendiculatus,[6]; [8],prophylactic efficacy
same,efficacy ≥80 percent against Rhipicephalus appendiculatus,[6]; [9],prophylactic efficacy
same,efficacy ≥80 percent against Rhipicephalus appendiculatus,[6]; [10],prophylactic efficacy
same,efficacy ≥80 percent against Rhipicephalus appendiculatus,"[6]; 5 mg/kg subcutaneous, re-infested after 35 days",prophylactic efficacy
same,efficacy ≥80 percent against Rhipicephalus appendiculatus,[6]; [11],therapeutic efficacy
same,efficacy ≥80 percent against Rhipicephalus appendiculatus,[6]; [12],prophylactic efficacy
same,efficacy ≥80 percent against Rhipicephalus appendiculatus,[6]; [13],prophylactic efficacy
same,efficacy ≥80 percent against Rhipicephalus appendiculatus,[6]; [14],prophylactic efficacy
same,efficacy ≥80 percent against Rhipicephalus appendiculatus,"[6]; 5 mg/kg topical pour-on, re-infested after 28 days",prophylactic efficacy
same,efficacy ≥80 percent against Rhipicephalus appendiculatus,"[6]; 5 mg/kg topical pour-on, re-infested after 35 days",prophylactic efficacy
same,efficacy ≥80 percent against Rhipicephalus appendiculatus,[6]; [15],therapeutic efficacy
same,effective in treating existing tick infestations,[6]; [16],100%
